Test results: PubChem BioAssay AID1963983 (Molecular Pharmacology Branch, DTP, NCI, 2024)
Blank lines part the entries; values can stand above or below the compound they belong to.

Test system: 186277-243-T-J2-PDC multi-cell spheroid viability
Test: Anticancer human tumor 186277-243-T-J2-PDC patient-derived colon adenocarcinoma cell line growth inhibition [PI3K]
Details: for IC50: curve of first compound; for viability, T/C: stronger effect = lower value
Summary of the method: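 Tumor cells grown as multi-cell spheroids with HUVEC endothelial cells and MSC fibroblast-like stroma were treated with targeted agents combined with inavolisib, alpelisib, duvelisib or copanlisib. Doses fell in half-log steps from near clinical Cmax, else from 10 microM. Viability was measured.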

[1] = second compound 0.0316 µM, first compound 0.000316 µM
[2] = second compound 0.0316 µM, first compound 0.001 µM
[3] = second compound 0.0316 µM, first compound 0.00316 µM
[4] = second compound 0.0316 µM, first compound 0.01 µM
[5] = second compound 0.0316 µM, first compound 0.0316 µM
[6] = second compound 0.0316 µM, first compound 0.1 µM
[7] = second compound 0.1 µM, first compound 0.000316 µM
[8] = second compound 0.1 µM, first compound 0.001 µM
[9] = second compound 0.1 µM, first compound 0.00316 µM
[10] = second compound 0.1 µM, first compound 0.01 µM
[11] = second compound 0.1 µM, first compound 0.0316 µM
[12] = second compound 0.1 µM, first compound 0.1 µM
[13] = second compound 0.316 µM, first compound 0.000316 µM
[14] = second compound 0.316 µM, first compound 0.001 µM
[15] = second compound 0.316 µM, first compound 0.00316 µM
[16] = second compound 0.316 µM, first compound 0.01 µM
[17] = second compound 0.316 µM, first compound 0.0316 µM
[18] = second compound 0.316 µM, first compound 0.1 µM
[19] = second compound 1 µM, first compound 0.000316 µM
[20] = second compound 1 µM, first compound 0.001 µM
[21] = second compound 1 µM, first compound 0.00316 µM
[22] = second compound 1 µM, first compound 0.01 µM
[23] = second compound 1 µM, first compound 0.0316 µM
[24] = second compound 1 µM, first compound 0.1 µM
[25] = second compound 3.16 µM, first compound 0.000316 µM
[26] = second compound 3.16 µM, first compound 0.001 µM
[27] = second compound 3.16 µM, first compound 0.00316 µM
[28] = second compound 3.16 µM, first compound 0.01 µM
[29] = second compound 3.16 µM, first compound 0.0316 µM
[30] = second compound 3.16 µM, first compound 0.1 µM
[31] = second compound 10 µM, first compound 0.000316 µM
[32] = second compound 10 µM, first compound 0.001 µM
[33] = second compound 10 µM, first compound 0.00316 µM
[34] = second compound 10 µM, first compound 0.01 µM
[35] = second compound 10 µM, first compound 0.0316 µM
[36] = second compound 10 µM, first compound 0.1 µM
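Note: spheroids exposed to compounds for seven days before viability reading.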
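Throughout, for viability, T/C: 100% = DMSO vehicle control viability.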

- IC50 (second compound 0.0316 µM): > 0.1 µM
- IC50 (second compound 0.1 µM): > 0.1 µM
- IC50 (second compound 0.316 µM): > 0.1 µM
- IC50 (second compound 1 µM): > 0.1 µM
- IC50 (second compound 3.16 µM): > 0.1 µM
- IC50 (second compound 10 µM): > 0.1 µM
Compound: CC(=O)c1c(C)c2cnc(Nc3ccc(N4CCNCC4)cn3)nc2n(C2CCCC2)c1=O + CC(Nc1ncnc2nc[nH]c12)c1cc2cccc(Cl)c2c(=O)n1-c1ccccc1
- viability, T/C [1]: 87.2%
- viability, T/C [2]: 96.8%
- viability, T/C [3]: 114%
- viability, T/C [4]: 97.2%
- viability, T/C [5]: 109%
- viability, T/C [6]: 113%
- viability, T/C [7]: 87.2%
- viability, T/C [8]: 91.5%
- viability, T/C [9]: 99%
- viability, T/C [10]: 96%
- viability, T/C [11]: 116%
- viability, T/C [12]: 133%
- viability, T/C [13]: 96.9%
- viability, T/C [14]: 97.2%
- viability, T/C [15]: 97.7%
- viability, T/C [16]: 107%
- viability, T/C [17]: 118%
- viability, T/C [18]: 127%
- viability, T/C [19]: 96.3%
- viability, T/C [20]: 96.8%
- viability, T/C [21]: 107%
- viability, T/C [22]: 107%
- viability, T/C [23]: 122%
- viability, T/C [24]: 118%
- viability, T/C [25]: 98.2%
- viability, T/C [26]: 104%
- viability, T/C [27]: 89.1%
- viability, T/C [28]: 110%
- viability, T/C [29]: 99.5%
- viability, T/C [30]: 119%
- viability, T/C [31]: 84%
- viability, T/C [32]: 93.1%
- viability, T/C [33]: 89.7%
- viability, T/C [34]: 79.3%
- viability, T/C [35]: 100%
- viability, T/C [36]: 97.9%

- IC50 (second compound 0.0316 µM): 0.0634 µM
- IC50 (second compound 0.1 µM): 0.0592 µM
- IC50 (second compound 0.316 µM): 0.0617 µM
- IC50 (second compound 1 µM): 0.0561 µM
- IC50 (second compound 3.16 µM): 0.0478 µM
- IC50 (second compound 10 µM): 0.0472 µM
Compound: CC(C)n1nc(-c2ccc3oc(N)nc3c2)c2c(N)ncnc21 + CC(Nc1ncnc2nc[nH]c12)c1cc2cccc(Cl)c2c(=O)n1-c1ccccc1
- viability, T/C [1]: 86.4%
- viability, T/C [2]: 96%
- viability, T/C [3]: 108%
- viability, T/C [4]: 90.2%
- viability, T/C [5]: 81.5%
- viability, T/C [6]: 29.2%
- viability, T/C [7]: 112%
- viability, T/C [8]: 101%
- viability, T/C [9]: 96.7%
- viability, T/C [10]: 97.1%
- viability, T/C [11]: 80.3%
- viability, T/C [12]: 25.3%
- viability, T/C [13]: 105%
- viability, T/C [14]: 103%
- viability, T/C [15]: 89.1%
- viability, T/C [16]: 103%
- viability, T/C [17]: 79.6%
- viability, T/C [18]: 28.6%
- viability, T/C [19]: 96.7%
- viability, T/C [20]: 108%
- viability, T/C [21]: 102%
- viability, T/C [22]: 96.3%
- viability, T/C [23]: 72.5%
- viability, T/C [24]: 27.4%
- viability, T/C [25]: 95%
- viability, T/C [26]: 90.8%
- viability, T/C [27]: 95.4%
- viability, T/C [28]: 92.2%
- viability, T/C [29]: 64.9%
- viability, T/C [30]: 23.5%
- viability, T/C [31]: 89.7%
- viability, T/C [32]: 94.5%
- viability, T/C [33]: 78%
- viability, T/C [34]: 80.5%
- viability, T/C [35]: 69.7%
- viability, T/C [36]: 17.6%
